Experimental data published in patent US6967196B1, “Sulfonamide compounds and uses thereof” (Bristol-Myers Squibb Company, priority 1999, dated 2005).
Counter-ions that a name gives are not always drawn. Like-named read-outs stand apart in the source and are kept apart here. Each block holds one compound with its values, some of them ahead of it.

Tested on: amyloid β production in transfected H4 (human neuroglioma) cells stably expressing APP constructs
Assay: In vitro cell-based assay of inhibitors of amyloid β production (ELISA)
Method in brief: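 Plate wt/variant APP cells; ≥6 h later swap to medium + compound (10-100 μM screen); incubate ~16 h; sample medium; Aβ ELISA with C-terminal capture / N-terminal detection Abs; quantify vs Aβ standard curve.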

[1] = transfected H4 cells stably expressing APP, approximately 16 hours incubation, amyloid β in medium by ELISA, read-out: ACTIVITY (IC50, inhibition of amyloid β production)
[2] = transfected H4 cells stably expressing APP, approx. 16 h incubation, amyloid β in medium by ELISA, read-out: ACTIVITY (IC50, inhibition of amyloid β production)
[3] = Homo sapiens, 16 h, transfected H4 cells stably expressing APP, approx. 16 h incubation, amyloid β in medium by ELISA, read-out: ACTIVITY (IC50, inhibition of amyloid β production)
[4] = transfected H4 cells stably expressing APP constructs, approximately 16 hours incubation, amyloid β in medium by ELISA, read-out: ACTIVITY (IC50, inhibition of amyloid β production)
[5] = Homo sapiens, 16 h, transfected H4 cells stably expressing APP, approximately 16 hours incubation, amyloid β in medium by ELISA, read-out: ACTIVITY (IC50, inhibition of amyloid β production)
[6] = Homo sapiens, 16 h, transfected H4 cells expressing APP, approximately 16 hours incubation, amyloid β in medium by ELISA, read-out: ACTIVITY (IC50, inhibition of amyloid β production)
[7] = transfected H4 cells stably expressing APP, approximately 16 hours incubation, amyloid β in medium by ELISA, Table B, read-out: ACTIVITY (IC50, inhibition of amyloid β production)

- IC50 [1]: > 500 nM
Compound: ethyl (2R)-2-{[(4-chlorophenyl)sulfonyl]-2,5-difluoroanilino}propanoate [Example 1060]

- IC50 [2]: 100 to 500 nM
Compound: N-{3-[2-(1-{[(4-chlorophenyl)sulfonyl]-2,5-difluoroanilino}ethyl)phenoxy]ethyl}-N-methyl-2-(trifluoromethyl)benzamide [Example 697]

- IC50 (Homo sapiens, 16 h, transfected H4 cells stably expressing APP constructs, approximately 16 hours incubation, amyloid β in medium by ELISA, read-out: ACTIVITY (IC50, inhibition of amyloid β production)): 100 to 500 nM
Compound: C[C@H](CCCNC(=O)OC(C)(C)C)N(c1cc(Cl)ccc1Cl)S(=O)(=O)c1ccc(Cl)cc1 [Example 1145, 4-chloro-N-(2,5-dichlorophenyl)-N-[4-[[(1,1-dimethylethoxy)carbonyl]amino]-1-methylbutyl]benzenesulfonamide]

Compound: O=S(=O)(c1ccc(Cl)cc1)N(Cc1ccccc1OCCCN1CCCCC1)c1cccc(Cl)c1 [Example 235, 4-Chloro-N-(3-chlorophenyl)-N-{2-[3-(1-piperidinyl)propoxy]benzyl}benzenesulfonamide Hydrochloride]
- IC50 (read-out: ACTIVITY (inhibitory concentration IC50, inhibition of amyloid β production)): 25 to 50 nM

Compound: O=S(=O)(c1ccc(Cl)cc1)N(Cc1ccccc1OCCCN1CCCCC1)c1cccc(Br)c1 [Example 804, N-(3-bromophenyl)-4-chloro-N-{2-[3-(1-piperidinyl)propoxy]benzyl}benzenesulfonamide hydrochloride]
- IC50 [3]: 100 to 500 nM

- IC50 [4]: > 10000 nM
Compound: 4-[2-({[(2-nitrophenyl)sulfonyl]anilino}methyl)phenyl]butanoic acid [Example 1097]

Compound: CN1CCCCC1CCOc1ccccc1CN(c1ccccc1)S(=O)(=O)c1ccc(Cl)cc1 (stereo not drawn) [Example 889, 4-chloro-N-{2-[2-(1-methyl-2-piperidinyl)ethoxy]benzyl}-N-phenylbenzenesulfonamide hydrochloride]
- IC50 [5]: > 500 nM

- IC50 [1]: > 500 nM
Compound: 2-((1R)-1-{[(4-chlorophenyl)sulfonyl]-2,5-difluoroanilino}ethyl)benzyl diethylcarbamate [Example 894]

- IC50 [1]: > 500 nM
Compound: (2R)-2-{[(4-chlorophenyl)sulfonyl]-2,5-difluoroanilino}propanoic acid [Example 1013]

- IC50 [6]: > 500 nM
Compound: C[C@H](CCCOC(=O)NCCCn1ccnc1)N(c1cc(Cl)ccc1CO)S(=O)(=O)c1ccc(Cl)cc1 [Example 1290]

Compound: 4-butoxy-N-{3-[2-({[(4-chlorophenyl)sulfonyl]-2,5-difluoroanilino}methyl)phenoxy]propyl}-N-methylbenzamide [Example 817]
- IC50 [1]: 100 to 500 nM

Compound: C[C@H](CCCSC(C)(C)C)N(c1cc(Cl)ccc1CO)S(=O)(=O)c1ccc(Cl)cc1 [Example 1229]
- IC50 [4]: ≤ 25 nM

- IC50 [5]: > 500 nM
Compound: CC(c1ccccc1O)N(c1cc(F)ccc1F)S(=O)(=O)c1ccc(Cl)cc1 (stereo not drawn) [Example 1052, 4-chloro-N-(2,5-difluorophenyl)-N-[1-(2-hydroxyphenyl)ethyl]benzenesulfonamide]

Compound: COC(=O)[C@H](CSCc1cc(F)ccc1[C@@H](C)N(c1cc(F)ccc1F)S(=O)(=O)c1ccc(Cl)cc1)NC(=O)OC(C)(C)C [Example 468, Methyl (2R)-2-[(tert-butoxycarbonyl)amino]-3-{[2-((1R)-1-{[(4-chlorophenyl)sulfonyl]-2,5-difluoroanilino}ethyl)-5-fluorobenzyl]sulfanyl}propanoate]
- IC50 [7]: 50 to 100 nM

- IC50 [1]: 100 to 500 nM
Compound: N-{3-[2-({[(4-chlorophenyl)sulfonyl]-2,5-difluoroanilino}methyl)phenoxy]propyl}-3-fluoro-N-methylbenzamide [Example 862]

- IC50 [5]: > 500 nM
Compound: C[C@H](c1ccc(F)cc1CCCC1=NCCCN1)N(c1cc(F)ccc1F)S(=O)(=O)c1ccc(Cl)cc1 [Example 1008, 4-chloro-N-(2,5-difluorophenyl)-N-((1R)-1-{4-fluoro-2-[3-(1,4,5,6-tetrahydro-2-pyrimidinyl)propyl]phenyl}ethyl)benzenesulfonamide hydrochloride]

Compound: C[C@H](CCCCN1CCC(S(C)(=O)=O)C1)N(c1cc(Cl)ccc1Cl)S(=O)(=O)c1ccc(Cl)cc1 (stereo partly drawn) [Example 1112, 4-chloro-N-(2,5-dichlorophenyl)-N-[5-[(3-methylsulfonyl)-1-pyrrolidinyl]-1(R)-methylpentyl]benzenesulfonamide]
- IC50 [4]: 25 to 50 nM

- IC50 [2]: 100 to 500 nM
Compound: C[C@H](C(=O)NCc1ccccn1)N(c1cc(Cl)ccc1F)S(=O)(=O)c1ccc(Cl)cc1 [Example 610]

Compound: CSC1CCN(CCC[C@@H](C)N(c2cc(Cl)ccc2Cl)S(=O)(=O)c2ccc(Cl)cc2)C1 (stereo partly drawn) [Example 1134, 4-chloro-N-(2,5-dichlorophenyl)-N-[4-[(3-methylthio)-1-pyrrolidinyl]-1(R)-methylbutyl]benzenesulfonamide]
- IC50 [4]: 100 to 500 nM

- IC50 [2]: 100 to 500 nM
Compound: N-{3-[2-(1-{[(4-chlorophenyl)sulfonyl]-2,5-difluoroanilino}ethyl)phenoxy]butyl}-3-cyclopentyl-N-methylpropanamide [Example 712]

- IC50 [1]: > 500 nM
Compound: COC(=O)[C@H](c1ccccc1)N(c1cc(F)ccc1F)S(=O)(=O)c1ccc(Cl)cc1 [Example 987, methyl (2S)-1-{[(4-chlorophenyl)sulfonyl]-2,5-difluoroanilino}(phenyl)ethanoate]

- IC50 [6]: > 500 nM
Compound: C[C@H](C(=O)NCCc1ccc(F)cc1)N(c1cc(Cl)ccc1F)S(=O)(=O)c1ccc(Cl)cc1 [Example 1326]

Compound: O=S(=O)(c1ccc(Cl)cc1)N(Cc1ccccc1OCCC[N+]1([O-])CCCCC1)c1cc(Cl)ccc1Cl [Example 506]
- IC50 [7]: 100 to 500 nM

- IC50 [6]: > 500 nM
Compound: C[C@H](C(=O)NCCc1ccccc1F)N(c1cc(Cl)ccc1F)S(=O)(=O)c1ccc(Cl)cc1 [Example 1359]

- IC50 [2]: 100 to 500 nM
Compound: N-{3-[2-(1-{[(4-chlorophenyl)sulfonyl]-2,5-difluoroanilino}ethyl)phenoxy]propyl}-N-methyl-4-(trifluoromethoxy)benzamide [Example 770]

- IC50 [4]: > 10000 nM
Compound: CCCCCCCCCCCCCCCCCC(=O)N(C)CCOc1ccccc1C(C)N(c1cc(F)ccc1F)S(=O)(=O)c1ccc(Cl)cc1 (stereo not drawn) [Example 1098]

Compound: C[C@H](CCCNC(=O)[C@@H](O)c1ccccc1)N(c1cc(Cl)ccc1Cl)S(=O)(=O)c1ccc(Cl)cc1 [Example 1124]
- IC50 [4]: 50 to 100 nM

- IC50 [2]: 100 to 500 nM
Compound: 2-((1R)-1-{[(4-chlorophenyl)sulfonyl]-2,5-difluoroanilino}ethyl)benzyl 2-phenylethylcarbamate [Example 743]

Compound: O=S(=O)(c1ccc(Cl)cc1)N(Cc1ccccc1OCCCN1CCCCC1)c1cccc(Cl)c1 [Example 663, 4-chloro-N-(3-chlorophenyl)-N-{2-[3-(1-piperidinyl)propoxy]benzyl}benzenesulfonamide hydrochloride]
- IC50 [3]: 100 to 500 nM

- IC50 (Homo sapiens, 16 h, transfected H4 cells stably expressing APP, approximately 16 hours incubation, amyloid β in medium by ELISA, Table B, read-out: ACTIVITY (IC50, inhibition of amyloid β production)): 50 to 100 nM
Compound: CC(c1ccccc1OCCCN(C)C(=O)CCC1CCCC1)N(c1cc(F)ccc1F)S(=O)(=O)c1ccc(Cl)cc1 (stereo not drawn) [Example 428, N-{3-[2-(1-{[(4-chlorophenyl)sulfonyl]-2,5-difluoroanilino}ethyl)phenoxy]propyl}-3-cyclopentyl-N-methylpropanamide]

Compound: CC1CN(CCCCC[C@@H](C)N(c2cc(Cl)ccc2F)S(=O)(=O)c2ccc(Cl)cc2)CCS1(=O)=O (stereo partly drawn) [Example 1274]
- IC50 [4]: ≤ 25 nM

- IC50 [1]: > 500 nM
Compound: 2,4-dichloro-N-{3-[2-({[(4-chlorophenyl)sulfonyl]-2,5-difluoroanilino}methyl)phenoxy]propyl}-5-fluoro-N-methylbenzamide [Example 896]

- IC50 [3]: 100 to 500 nM
Compound: CC(C)NC(=O)N(C)CCOc1ccccc1C(C)N(c1cc(F)ccc1F)S(=O)(=O)c1ccc(Cl)cc1 (stereo not drawn) [Example 695, 4-chloro-N-(2,5-difluorophenyl)-N-[1-(2-{2-[[(isopropylamino)carbonyl](methyl)amino]ethoxy}phenyl)ethyl]benzenesulfonamide]
